Results taken from BindingDB's records for doi:10.1021/acs.jmedchem.0c00546 (University of Tennessee, 2020).

Biological target: T1, Dihydrofolate reductase (Homo sapiens, UniProt P00374)
T1 sequence (P00374 whole entry): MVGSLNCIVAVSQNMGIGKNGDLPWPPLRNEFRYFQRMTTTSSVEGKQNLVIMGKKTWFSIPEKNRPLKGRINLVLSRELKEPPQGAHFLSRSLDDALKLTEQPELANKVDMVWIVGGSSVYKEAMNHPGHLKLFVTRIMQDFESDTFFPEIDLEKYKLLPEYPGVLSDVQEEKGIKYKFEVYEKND
Experiment: Inhibition of human DHFR in presence of DHF and NADPH by UV-vis spectrometry by Lineweaver-Burk plot analysis

Row | SMILES | Ki [µM]
1 | N[C@H](Cc1c[nH]c2ccccc12)C(=O)O [(2R)-2-amino-3-(1H-indol-3-yl)propanoic acid] | 880
2 | Nc1ccnc(N)n1 [Diaminopyrimidine] | 180
